In patent US20080312336A1, “Preventive and/or Therapeutic Agent for Diabetic Vascular Disorder and Respiratory Disorder” (priority 2005, published 2008):
Values belong to the compound of their own block, whether it stands above or below them.

Legend:
[1] = tested on: tracheal specimens contracted with carbachol; conditions: cited from earlier work; for relaxation of specimens contracted with carbachol: carbachol 10^−6 mol/l; for response of diabetic rat specimens compared with control animals: specimens six weeks after 65 mg/kg i.v. streptozotocin
rat isolated trachea = conditions: streptozotocin-induced diabetic rats and normal rats; cited from earlier work
[2] = tested on: tracheal muscles isolated from streptozotocin-induced diabetic rats; conditions: cited from earlier work
[3] = tested on: tracheal smooth muscles from the STZ-induced diabetic rat model; assay: Carbachol-induced contraction of isolated tracheal smooth muscle from STZ-induced diabetic rats after four weeks of dosing; type: in vivo, SD rats; conditions: for effective dose for inducing 50% muscle contraction (ED50): ED50 of carbachol; for effective dose for inducing 50% muscle contraction (ED50) / maximum muscle contractile force (Emax): mean±SD, n=6; for maximum muscle contractile force (Emax): carbachol
Description: Eight-week-old male SD rats were divided into four groups, three of which were intraperitoneally administered with 50 mg/kg of streptozotocin (hereafter, also referred to as STZ) to induce diabetes. Of this diabetic model, two groups were used as the test substance-administered groups, and were intraperitoneally administered with 2 mg/kg or 8 mg/kg of the compound, 3-(15-hydroxypentadecyl)-2,4,4-trimethyl-2-cyclohexen-1-one (hereunder, referred to as “compound 24”) synthesized in Preparation Example 24, once daily for four weeks continuously. The diabetic model which was not administered with “compound 24” was used as the control group, and rats administered with neither STZ nor “compound 24” were used as the non-treated group.
After four weeks from the start of administration, tracheae were isolated to prepare specimens (mucosal epithelium (+) specimens). The mucosal epithelia were further removed from these specimens to form mucosal epithelium (−) specimens. These specimens were suspended in an organ bath, and the contractile response to cumulative administration of carbachol (CAS Registry No.: 51-83-2) was observed. The muscle contractile force was measured with various cumulative concentrations of carbachol within the range of 10^−8.0 to 10^−4.5 M, to obtain the maximum muscle contractile force (Emax (g/mg tissue)) and the effective dose for inducing 50% muscle contraction (ED50 (M)).

[4] = tested on: vascular smooth muscles from the STZ-induced diabetic rat model; assay: U-46619-induced contraction of isolated thoracic aorta rings from STZ-induced diabetic rats after four weeks of dosing; type: in vivo, SD rats; set-up: effective dose for inducing 50% muscle contraction (ED50): unit not given here; conditions: for effective dose for inducing 50% muscle contraction (ED50): ED50 of U-46619
Description: Eight-week-old male SD rats were divided into four groups, three of which were intraperitoneally administered with 50 mg/kg of streptozotocin (hereafter, also referred to as STZ) to induce diabetes. Of this diabetic model, two groups were used as the test substance-administered groups, and were intraperitoneally administered with 2 mg/kg or 8 mg/kg of “compound 24” synthesized in Preparation Example […] once daily for four weeks continuously. The diabetic model which was not administered with “compound 24” was used as the control group, and rats which were administered with neither STZ nor “compound 24” were used as the non-treated group.
After four weeks from the start of administration, thoracic aorta were isolated to form ring specimens (endothelium (+) specimens) of about 2 mm in length. The vascular endothelia were further removed from these specimens to form endothelium (−) specimens. These specimens were suspended in an organ bath, and the contractile response to cumulative administration of 9,11-dideoxy-9α,11α-methanoepoxy-prosta-5Z,13E-dien-1-oic acid (CAS Registry No.: 56985-40-1, hereafter also referred to as U-46619), which is a thromboxane A2 derivative, was observed. The muscle contractile force was measured with various cumulative concentrations of U-46619 within the range of 10^−9.0 to 10^−6.5 M, to obtain the maximum muscle contractile force (Emax (g/mg tissue)) and the effective dose for inducing 50% muscle contraction (ED50 (M)).

[5] = mucosal epithelium (+) specimens, 2 mg/kg i.p. once daily for four weeks
[6] = mucosal epithelium (+) specimens, 8 mg/kg i.p. once daily for four weeks
[7] = mucosal epithelium (−) specimens, 2 mg/kg i.p. once daily for four weeks
[8] = mucosal epithelium (−) specimens, 8 mg/kg i.p. once daily for four weeks

melting point: 35 to 36 °C
SMILES: O=C1C=C(CCCCCCCCCCCCO)CCC1 [Preparation Example 3, 3-(12-hydroxydodecyl)-2-cyclohexen-1-one]

melting point: 44 to 45 °C
SMILES: O=C1C=C(CCCCCCCCCCCCCCO)CCC1 [Preparation Example 5, 3-(14-hydroxytetradecyl)-2-cyclohexen-1-one]

SMILES: Nc1cc(-c2ccncc2)c[nH]c1=O [aminone]
relaxation of specimens contracted with carbachol [1]: concentration-dependent relaxation
response of diabetic rat specimens compared with control animals [1]: higher response

SMILES: Cn1c(=O)c2[nH]cnc2n(C)c1=O [theophylline]
relaxation of specimens contracted with carbachol [1]: concentration-dependent relaxation
response of diabetic rat specimens compared with control animals [1]: no significant difference

melting point: 42 to 43 °C
SMILES: O=C1C=C(CCCCCCCCCCCCCO)CCC1 [Preparation Example 4, 3-(13-hydroxytridecyl)-2-cyclohexen-1-one]

SMILES: NCCCC(=O)O [GABA, γ-aminobutyric acid]
effect on tracheal contraction induced by electrical stimulation (rat isolated trachea): inhibited

melting point: 34 to 35 °C
SMILES: O=C1C=C(CCCCCCCCCCCO)CCC1 [Preparation Example 2, 3-(11-hydroxyundecyl)-2-cyclohexen-1-one]

SMILES: COC(=O)[C@@H](N)CCCNC(=N)N[N+](=O)[O-] [L-NAME, NG-nitro-L-arginine-methylester]
effect on electrical stimulation-induced contraction ([2]; normal rats and diabetic rats): enhanced the response in normal rats, but not in diabetic rats
effect on acetylcholine-induced contraction ([2]; tracheal muscles from streptozotocin-induced diabetic rats): not affected

SMILES: COc1ccc(C2CNC(=O)C2)cc1OC1CCCC1 (centres unmarked) [rolipram]
relaxation of specimens contracted with carbachol [1]: concentration-dependent relaxation
concentration at which the effect was observed ([1]; control animal specimens): observed at the lowest concentration
response of diabetic rat specimens compared with control animals [1]: no significant difference

SMILES: CC1=C(CCCCCCCCCCCCCCCO)C(C)(C)CCC1=O [Compound 24, 3-(15-hydroxypentadecyl)-2,4,4-trimethyl-2-cyclohexen-1-one]
effect on ED50 decrease of carbachol-induced tracheal smooth muscle contraction ([3]; 2 and 8 mg/kg, vs. control group): inhibited the ED50 decrease in a dose-dependent manner
effective dose for inducing 50% muscle contraction (ED50) [3, 5]: 12.2 ± 2.3 ×10^−8 M
effective dose for inducing 50% muscle contraction (ED50) [3, 6]: 17.2 ± 5.3 ×10^−8 M
effective dose for inducing 50% muscle contraction (ED50) [3, 7]: 11.4 ± 3.1 ×10^−8 M
effective dose for inducing 50% muscle contraction (ED50) [3, 8]: 13.3 ± 4.2 ×10^−8 M
overall effect on tracheal smooth muscle contraction ([3]; STZ-induced diabetic rats): tracheal smooth muscle contraction-improving tendency
effect on Emax increase of carbachol-induced tracheal smooth muscle contraction ([3]; both mucosal epithelium (+) and (−) specimens, 2 and 8 mg/kg, vs. control group): tended to suppress the Emax increase concentration-dependently
maximum muscle contractile force (Emax) [3, 5]: 0.303 ± 0.047 g/mg tissue
maximum muscle contractile force (Emax) [3, 6]: 0.292 ± 0.029 g/mg tissue
maximum muscle contractile force (Emax) [3, 7]: 0.307 ± 0.036 g/mg tissue
maximum muscle contractile force (Emax) [3, 8]: 0.242 ± 0.019 g/mg tissue
effect on Emax increase, endothelium (−) specimens ([4]; 2 mg/kg or 8 mg/kg, compared to the control group): significant inhibition of the Emax increase
effect on Emax increase, endothelium (+) specimens ([4]; 8 mg/kg, compared to the control group): significant inhibition of the Emax increase
effective dose for inducing 50% muscle contraction (ED50) ([4]; endothelium (+) specimens, 2 mg/kg i.p. once daily for four weeks, mean±SD, n=6): 8.077 ± 0.037 ×10^−9
effective dose for inducing 50% muscle contraction (ED50) ([4]; endothelium (+) specimens, 8 mg/kg i.p. once daily for four weeks, mean±SD, n=6): 8.102 ± 0.055 ×10^−9
effective dose for inducing 50% muscle contraction (ED50) ([4]; endothelium (−) specimens, 2 mg/kg i.p. once daily for four weeks, mean±SD, n=6): 8.149 ± 0.030 ×10^−9
effective dose for inducing 50% muscle contraction (ED50) ([4]; endothelium (−) specimens, 8 mg/kg i.p. once daily for four weeks, mean±SD, n=6): 8.194 ± 0.114 ×10^−9
overall effect on vascular smooth muscle contraction ([4]; STZ-induced diabetic rats): vascular smooth muscle contraction-inhibiting effect
effect on ED50 of U-46619 ([4]; all groups): no difference in ED50 among the groups
effect on Emax increase of U-46619-induced vascular smooth muscle contraction ([4]; both endothelium (+) and (−) specimens, 2 and 8 mg/kg, vs. control group): inhibited the Emax increase in a dose-dependent manner
maximum muscle contractile force (Emax) ([4]; endothelium (+) specimens, U-46619, 2 mg/kg i.p. once daily for four weeks, mean±SD, n=6): 0.576 ± 0.082 g/mg tissue
